The NIST ThermoML archive (doi:10.1016/j.jct.2013.02.001)
± gives the expanded uncertainty stated by the source.

Assay: molar heat capacity at constant pressure
Settings: 101.33 kPa, Crystal 1, Quantum Design PPMS relaxation calorimeter

O=P([O-])([O-])OP(=O)([O-])[O-].[Fe+2].[Fe+2] [iron(II) pyrophosphate]
Settings	molar heat capacity at constant pressure [J/K/mol]
26.04 K	20.21 ± 0.4
26.23 K	20.27 ± 0.41
26.42 K	20.35 ± 0.41
26.51 K	20.4 ± 0.41
26.62 K	20.45 ± 0.41
26.81 K	20.52 ± 0.41
26.98 K	20.63 ± 0.41
27 K	20.61 ± 0.41
27.2 K	20.71 ± 0.41
27.39 K	20.81 ± 0.42
27.53 K	20.88 ± 0.42
27.58 K	20.9 ± 0.42
27.78 K	20.99 ± 0.42
27.98 K	20.92 ± 0.42
27.99 K	20.94 ± 0.42
28.18 K	20.76 ± 0.41
28.34 K	20.71 ± 0.41
28.53 K	20.72 ± 0.41
28.55 K	20.74 ± 0.41
28.68 K	20.78 ± 0.42
28.75 K	20.76 ± 0.41
28.95 K	20.82 ± 0.42
29.05 K	20.85 ± 0.42
29.12 K	20.86 ± 0.42
29.33 K	20.93 ± 0.42
29.51 K	21.05 ± 0.42
29.53 K	20.99 ± 0.42
29.72 K	21.07 ± 0.42
29.91 K	21.11 ± 0.42
30 K	21.15 ± 0.51
30.06 K	21.18 ± 0.42
30.11 K	21.2 ± 0.42
30.3 K	21.27 ± 0.42
30.5 K	21.35 ± 0.43
30.52 K	21.34 ± 0.43
30.7 K	21.43 ± 0.43
30.89 K	21.5 ± 0.43
31.05 K	21.58 ± 0.43
31.54 K	21.77 ± 0.43
31.86 K	21.93 ± 0.44
32.06 K	22.02 ± 0.44
32.55 K	22.21 ± 0.44
33.06 K	22.48 ± 0.45
33.6 K	22.75 ± 0.46
34.07 K	22.98 ± 0.46
35 K	23.58 ± 0.57
35.39 K	23.86 ± 0.48
39.3 K	26.23 ± 0.53
40 K	26.79 ± 0.64
43.62 K	29.29 ± 0.59
45 K	30.48 ± 0.73
48.44 K	33.24 ± 0.67
50 K	34.53 ± 0.83
53.8 K	37.9 ± 0.76
55 K	38.88 ± 0.93
59.7 K	43.41 ± 0.87
60 K	43.45 ± 1
65 K	48.17 ± 1.2
66.33 K	49.51 ± 0.99
70 K	52.96 ± 1.2
73.67 K	56.22 ± 1.1
75 K	57.77 ± 1.3
80 K	62.51 ± 1.4
81.81 K	63.97 ± 1.3
85 K	67.27 ± 1.5
90 K	72.12 ± 1.6
90.85 K	72.47 ± 1.4
95 K	76.73 ± 1.7
100 K	81.13 ± 1.8
100.84 K	81.1 ± 1.6
110 K	89.39 ± 2
110.99 K	89.55 ± 1.8
120 K	97.12 ± 2.1
120.88 K	97.62 ± 2
130 K	104.5 ± 2.3
131.05 K	105.42 ± 2.1
140 K	111.61 ± 2.5
141.03 K	112.91 ± 2.3
150 K	118.53 ± 2.6
151.17 K	119.77 ± 2.4
160 K	125.27 ± 2.8
161.25 K	126.73 ± 2.5
170 K	131.84 ± 2.9
171.3 K	133.11 ± 2.7
180 K	138.23 ± 3
181.45 K	139.41 ± 2.8
190 K	144.41 ± 3.2
191.55 K	145.2 ± 2.9
200 K	150.38 ± 3.3
201.65 K	151.21 ± 3
210 K	156.13 ± 3.4
211.78 K	157.08 ± 3.1
220 K	161.63 ± 3.6
221.88 K	161.91 ± 3.2
230 K	166.89 ± 3.7
232.02 K	167.23 ± 3.3
240 K	171.91 ± 3.8
242.09 K	171.91 ± 3.4
250 K	176.68 ± 3.9
252.14 K	177.54 ± 3.5
260 K	181.21 ± 4
262.21 K	182.5 ± 3.6
270 K	185.5 ± 4.1
272.36 K	187.75 ± 3.8
273.15 K	186.8 ± 4.1
280 K	189.56 ± 4.2
282.44 K	193.26 ± 3.9
290 K	193.4 ± 4.2
292.45 K	194.84 ± 3.9
298.15 K	196.38 ± 4.3
300 K	197.04 ± 4.3
302.52 K	200.88 ± 4
